One test relates to HL-60. The experiment in a line: Induction of cell differentiation in human HL60 cells assessed as maturing morphological changes at 30 to 1000 nM after 48 hrs by Wright's-Giemsa staining-based forty microscopic view assay. The format is functional.
In another test the test system is MCF7. The test can be described thus: Antiproliferative activity against human MCF7 cells assessed as inhibition of proliferation after 72 hrs by MTT assay. Type of test: functional, cell-based. The settings on record: MCF7, 72 h.
Test [1] concerns the target T1, Vitamin D3 receptor (Bos taurus) (UniProt Q28037).
T1 sequence (whole entry): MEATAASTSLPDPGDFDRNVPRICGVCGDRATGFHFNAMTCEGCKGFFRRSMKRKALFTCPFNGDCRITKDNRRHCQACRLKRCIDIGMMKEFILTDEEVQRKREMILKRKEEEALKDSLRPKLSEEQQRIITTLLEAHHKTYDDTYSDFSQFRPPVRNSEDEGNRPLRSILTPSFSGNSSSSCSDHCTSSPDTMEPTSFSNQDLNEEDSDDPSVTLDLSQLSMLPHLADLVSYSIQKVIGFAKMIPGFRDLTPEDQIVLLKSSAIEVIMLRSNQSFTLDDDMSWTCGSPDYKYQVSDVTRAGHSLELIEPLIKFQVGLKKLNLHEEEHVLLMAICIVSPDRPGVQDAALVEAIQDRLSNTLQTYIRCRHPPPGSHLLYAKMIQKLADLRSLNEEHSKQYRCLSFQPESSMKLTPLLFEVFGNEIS
The test can be described thus: Displacement of [3H]-1alpha,25-dihydroxyvitamin D3 from bovine thymus VDR measured after overnight incubation relative to 1alpha,25-dihydroxyvitamin D3.

Active and inactive are the calls of the source. The calls are words filed in the database; no cut-off is given here.

The IC50 is the concentration at which inhibition is half-maximal.

In the case of `C=C1/C(=C\C=C2/CCC[C@]3(C)[C@@H]([C@H](C)CCCC(C)(C)O)CC[C@@H]23)C[C@@H](O)C[C@@H]1O`, in the test on HL-60, the outcome was Active.
Regarding `C=C1/C(=C\C=C2/CCC[C@]3(C)C(c4ccccc4CCCC(C)(C)O)=CC[C@@H]23)C[C@@H](O)C[C@@H]1O`, the outcome in the test on HL-60 was Active. Also, in the test on MCF7, the IC50 stood at 7.08 µM. Moreover, the Ratio in test [1] was 0.01.
As for `C=C1CC[C@H](O)C/C1=C/C=C1\CCC[C@]2(C)[C@@H]([C@H](C)CCCC(C)(C)O)CC[C@@H]12`, the Ratio in test [1] came to 0.01.
Regarding `C=C1/C(=C\C=C2/CCC[C@]3(C)C(c4cccc(CCCC(C)(C)O)c4)=CC[C@@H]23)C[C@@H](O)C[C@@H]1O`, the outcome in the test with HL-60 was Active. The IC50 with MCF7 worked out at 7.56 µM. For the same compound, the Ratio in test [1] came to 0.015.

The record behind these values is ChEMBL document CHEMBL3352449, “Synthesis and biological evaluation of 1α,25-dihydroxyvitamin D3 analogues with aromatic side chains attached at C-17” (Eur J Med Chem, 2014).
